Measurements: patent publication EP0934745B1, “Use of androsterone derivatives for inhibiting DNA binding of ap-1 and airway smooth muscle proliferation” (CHARLOTTE-MECKLENBURG HOSPITAL doing business as Carolinas …, priority 1998, dated 1999)

Tested on: c-fos
Test: Expression of c-fos protein (immunoblot) and mRNA (RT-PCR) after FBS stimulation
Format: cell-based, rat
Settings: pretreated 2 hours with 10 µM (Figures 7A-7C)
Procedure: To determine if 16α-BrEA impaired expression of early response genes important for cellular proliferation, confluent 75-cm^2 Petri dishes of airway smooth muscle cells were growth arrested by incubation for 24 hours in DMEM with 0.5% FBS. Monolayers were pretreated 2 hours with 10 µM 16α-BrEA or DMSO vehicle, and stimulated by exposure to DMEM with 10% FBS for 30 minutes. Cells were then lysed and c-fos mRNA was measured by the reverse transcriptase-polymerase chain reaction, as described below. To study whether levels of c-fos protein were affected, confluent monolayers on 6-well plates were growth arrested for 24 hours in DMEM with 0.5% FBS. Cells were then pretreated 2 hours with 16α-BrEA or DMSO vehicle and stimulated with 10% FBS in DMEM for 15, 30 and 60 minutes. Cells were then lysed and c-fos protein was assayed by immunoblotting as described below.
For measurement of c-fos protein, monolayers were placed on ice, washed twice with cold DPBS, scraped into 0.5 ml boiling buffer (10% [vol/vol] glycerol and 2% [wt/vol] sodium dodecyl sulfate [SDS] in 83 mM Tris, pH 6.8) and sonicated. Aliquots were removed for protein determination, bromophenol blue and β-mercaptoethanol were added and lysates were boiled and stored as outlined above. […]

In the case of `C[C@]12CC[C@H](O)C[C@@H]1CC[C@@H]1[C@@H]2CC[C@]2(C)C(=O)[C@H](Br)C[C@@H]12` [16α-BrEA, 16α-bromoepiandrosterone], the “stimulation of c-fos protein or mRNA in response to 10% FBS” value is reported as “did not reduce”.
